Entries after “also recorded” stand apart in the source; their conditions may differ. Where two headings read alike, the source gives them in different places.
Assays:
TAS2R44 = target: T1, TAS2R44 (Homo sapiens, UniProt P59538, L162M); assay: Fluo-4 calcium assay, HEK293T cells expressing Gα16-gustducin44 and TAS2R44; type: cell-based; settings: for TAS2R44 ΔF/F0: 0.02% DMSO; for Sucralose ΔF/F0 / Sucralose + test cpd A ΔF/F0: TAS2R44 expressing cells; for Sucralose + test cpd A ΔF/F0: 25 μM test cpd A
T1 construct: RSS tag (first 45 amino acids of rat somatostatin receptor subtype 3, plus EcoRI site) (N); expressed in transfected cells
T1 sequence (P59538 with tags, fused parts or gaps L162M): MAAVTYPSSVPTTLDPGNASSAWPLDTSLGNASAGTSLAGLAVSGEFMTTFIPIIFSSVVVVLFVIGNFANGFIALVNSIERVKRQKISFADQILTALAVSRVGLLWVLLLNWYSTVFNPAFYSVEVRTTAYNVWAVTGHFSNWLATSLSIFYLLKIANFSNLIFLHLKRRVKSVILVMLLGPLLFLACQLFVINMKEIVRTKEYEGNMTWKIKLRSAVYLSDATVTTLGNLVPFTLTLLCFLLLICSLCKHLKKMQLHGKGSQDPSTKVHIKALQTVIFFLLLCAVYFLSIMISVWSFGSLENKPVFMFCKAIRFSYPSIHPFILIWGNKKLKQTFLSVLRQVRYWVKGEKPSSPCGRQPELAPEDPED
Method: Cell lines that stably expresses a SABR (TAS2R44, TAS2R1, TAS2R10) was generated by transfecting pcDNA3.1Zeo-SABR into HEK293T/Gα16-gustducin 44 cells (both formed as described in example 1). The host cell line HEK-293T is commercially available from the American Tissue Culture Collection (ATCC), ATCC®# CRL-11268.
The expression of TAS2R44 was evaluated by testing for the presence of a functional response to the known TAS2R44 agonist saccharin (as described in WO 2004/029087) in addition to sucralose, which was determined via automated calcium imaging on the FLIPR-TETRA™ (Molecular Devices, Sunnyvale, Calif., US) as described in example 3. One clone was selected resulting in the HEK293T/Gα16-gustducin 44/TAS2R44 cell line.
Fluo-4AM (Invitrogen, Carlsbad, Calif., US) is a fluorescent indicator of intracellular calcium dynamics (change in concentration) and allows monitoring changes in the calcium concentration, particularly an increase in response to receptor activation occurring after agonist exposure.
(§1) At day 0, the HEK293T cell line expressing Gα16-gustducin44 and a TAS2R bitter taste receptor formed as described in examples 2b or 2c was seeded in antibiotic-free growth medium (standard DMEM with 10% (v/v) heat-inactivated fetal bovine serum, 2 mM L-glutamine[…]) into black wall/clear bottom 96-well plates, coated with poly(ethylenimine) (0.005% v/v) at a concentration of 15,000 cells per well and incubated for 48 hours in humidified atmosphere (37° C., 5% CO2).
(§2) At the time of the assay, the growth medium was discarded and the cells were in humidified atmosphere (37° C., 5% CO2) for 1 hour with 50 μl of loading buffer consisting of 1.5 μM Fluo-4 AM and […] probenicid (Sigma-Aldrich, St. Louis, Mo., US) in DMEM.
(§3) Afterwards, the 96-well plate was washed 5 times with 100 μl of assay buffer (130 mM NaCl, 5 mM KCl, 10 mM HEPES, 2 mM CaCl2, and 5 mM dextrose, pH 7.4) per well, using an automated plate washer (BioTek). The plate was further incubated for 30 minutes at room temperature in the dark to allow for complete de-esterification of the Fluo-4. Afterwards the plate was washed 5 times with 100 μl of assay buffer per well, and reconstituted with 100 μl of assay buffer per well.
(§4) For assay reading, the plate was placed in a Fluorometric Imaging Plate Reader (FLIPR) (FLIPR-TETRA™, Molecular Devices, Sunnyvale, Calif., US), and receptor activation was initiated by addition of 100 μl of a twofold concentrated agonist stock solution (to give the desired agonist end concentration when added to the 100 microliter assay buffer volume), which was prepared in assay buffer.
(§5) Fluorescence was continuously monitored for 20 seconds to give a signal baseline (averaged to give F0) prior to agonist addition and for 120 seconds after agonist addition. The change in signal divided by F0 gives ΔF/F0 indicated in the table, with ΔF being the maximum signal occurring within the 120 seconds minus the minimum signal (occurring within the 120 seconds after agonist addition.
All data was collected from at least two independent experiments each carried out in triplicate.
A concentration-response analysis was performed and EC50 values were calculated by nonlinear regression using the function f(x)=(a−d)/(1+(x/C)^nh)+d; with a=minimum signal, d=maximum signal, nh=hill coefficient, C=EC50, and x=agonist concentration. EC50 is the molar concentration of an agonist which produces 50% of the maximum possible effective response for that agonist.
The obtained calcium signals were corrected for the response of cells expressing only the G Protein α subunit (Gα16-gustducin44) and normalized to the fluorescence of cells prior to the stimulus using ΔF/F0 (Fmax−Fmin/F0). […]

[1] = test system: cells expressing only Gα16gustducin44 but no TAS2 receptor; assay: Fluo-4 calcium assay, negative control cells without bitter receptor; type: cell-based; settings: for Neg. Control ΔF/F0: 0.02% DMSO
Method: HEK293T/Gα16-gustducin 44 cells were used; they are formed as described in WO 2004/055048. The host cell line HEK-293T is commercially available from the American Tissue Culture Collection (ATCC), ATCC®# CRL-11268
as §1, §2, §3, §4, §5
The obtained calcium signals were corrected for the response of cells expressing only the G Protein α subunit (Gα16-gustducin44) and normalized to the fluorescence of cells prior to the stimulus using ΔF/F0 (Fmax−Fmin/F0).
To confirm that the cell line formed in example 2c stably expresses the bitter taste receptor TAS2R44, a concentration-response curve for saccharin, a known agonist of TAS2R44, was generated. […] The standard deviation (+/−STD) is also indicated.
As a negative control to determine unspecific signals, each of the applied concentrations of sucralose was applied to cells expressing only Gα16gustducin44.
As a negative control, each agonist and each agonist with the antagonist/test compound (test cpd A) is applied to cells expressing only Gal 6gustducin44 but no TAS2 receptor (see results in table 7 herein below).

OC[C@H]1O[C@H](O[C@]2(CCl)O[C@H](CCl)[C@@H](O)[C@@H]2O)[C@H](O)[C@@H](O)[C@H]1Cl [Sucralose, sucralose]
EC50 (TAS2R44; agonist alone, stable TAS2R44 cell line (Examples 4, 5), read-out: calculated EC50 value): 16.7 ± 1.01 mM
EC50 (TAS2R44; agonist sucralose alone, TAS2R44 (Example 9), read-out: EC50 Agonist): 36.3 ± 5.7 mM
agonist activity at TAS2R44 (calcium signaling), in words (TAS2R44; cells stably expressing human TAS2R44): significant increase in calcium signaling
TAS2R44 ΔF/F0 (TAS2R44; sucralose 0.3906 mM): 0.023
TAS2R44 ΔF/F0 (TAS2R44; sucralose 0.7813 mM): 0.025
TAS2R44 ΔF/F0 (TAS2R44; sucralose 1.5625 mM): 0.026
TAS2R44 ΔF/F0 (TAS2R44; sucralose 3.1250 mM): 0.043
TAS2R44 ΔF/F0 (TAS2R44; sucralose 6.2500 mM): 0.059
TAS2R44 ΔF/F0 (TAS2R44; sucralose 12.5000 mM): 0.109
TAS2R44 ΔF/F0 (TAS2R44; sucralose 25.0000 mM): 0.197
TAS2R44 ΔF/F0 (TAS2R44; sucralose 50.0000 mM): 0.256
TAS2R44 ΔF/F0 (TAS2R44; sucralose 100.0000 mM): 0.260
Sucralose ΔF/F0 (TAS2R44; sucralose alone 0.3906 mM (0.02% DMSO control of Example 9)): 0.046
Sucralose ΔF/F0 (TAS2R44; sucralose alone 0.7813 mM (0.02% DMSO control of Example 9)): 0.038
Sucralose ΔF/F0 (TAS2R44; sucralose alone 1.5625 mM (0.02% DMSO control of Example 9)): 0.042
Sucralose ΔF/F0 (TAS2R44; sucralose alone 3.1250 mM (0.02% DMSO control of Example 9)): 0.030
Sucralose ΔF/F0 (TAS2R44; sucralose alone 6.2500 mM (0.02% DMSO control of Example 9)): 0.027
Sucralose ΔF/F0 (TAS2R44; sucralose alone 12.5000 mM (0.02% DMSO control of Example 9)): 0.051
Sucralose ΔF/F0 (TAS2R44; sucralose alone 25.0000 mM (0.02% DMSO control of Example 9)): 0.110
Sucralose ΔF/F0 (TAS2R44; sucralose alone 50.0000 mM (0.02% DMSO control of Example 9)): 0.192
Sucralose ΔF/F0 (TAS2R44; sucralose alone 100.0000 mM (0.02% DMSO control of Example 9)): 0.352
signal in negative control, in words ([1]; host cells expressing only Gα16-gustducin44): No significant change
Neg. Control ΔF/F0 ([1]; sucralose 0.3906 mM): 0.014
Neg. Control ΔF/F0 ([1]; sucralose 0.7813 mM): 0.014
Neg. Control ΔF/F0 ([1]; sucralose 1.5625 mM): 0.017
Neg. Control ΔF/F0 ([1]; sucralose 3.1250 mM): 0.012
Neg. Control ΔF/F0 ([1]; sucralose 6.2500 mM): 0.017
Neg. Control ΔF/F0 ([1]; sucralose 12.5000 mM): 0.016
Neg. Control ΔF/F0 ([1]; sucralose 25.0000 mM): 0.016
Neg. Control ΔF/F0 ([1]; sucralose 50.0000 mM): 0.018
Neg. Control ΔF/F0 ([1]; sucralose 100.0000 mM): 0.021
Sucralose ΔF/F0 ([1]; sucralose alone 100.0000 mM, cells without bitter receptor (Example 9)): −0.179

CC1=CCC(C/C=C/C(=O)O)C1(C)C (stereo not shown) [test cpd A, (E)-4-(2,2,3-trimethylcyclopent-3-enyl)but-2-enoic acid]
Sucralose + test cpd A ΔF/F0 (TAS2R44; sucralose 0.3906 mM): 0.011
Sucralose + test cpd A ΔF/F0 (TAS2R44; sucralose 0.7813 mM): 0.010
Sucralose + test cpd A ΔF/F0 (TAS2R44; sucralose 1.5625 mM): 0.016
Sucralose + test cpd A ΔF/F0 (TAS2R44; sucralose 3.1250 mM): 0.005
Sucralose + test cpd A ΔF/F0 (TAS2R44; sucralose 6.2500 mM): 0.000
Sucralose + test cpd A ΔF/F0 (TAS2R44; sucralose 12.5000 mM): −0.015
Sucralose + test cpd A ΔF/F0 (TAS2R44; sucralose 25.0000 mM): −0.035
Sucralose + test cpd A ΔF/F0 (TAS2R44; sucralose 50.0000 mM): −0.025
Sucralose + test cpd A ΔF/F0 (TAS2R44; sucralose 100.0000 mM): 0.107
effect on the response of TAS2R44 to sucralose, in words (TAS2R44; test compound at 25 μM): inhibited; also recorded: inhibit the response of a SABTR to sucralose
Sucralose + test cpd A ΔF/F0 ([1]; 25 μM test cpd A, sucralose 100.0000 mM, cells without bitter receptor): −0.175
